According to ChEMBL document CHEMBL4330118, “Structure-guided discovery of a novel, potent, and orally bioavailable 3,5-dimethylisoxazole aryl-benzimidazole BET bromodomain inhibitor” (Bioorg Med Chem, 2019):

Columns and labels:
Type in all cases: ADME, organism-based
[1] = Plasma concentration in mouse xenografted with human SU-DHL10 cells at 1 mg/kg, po administered twice daily via gavage for 21 days measured at 2 hrs post last dose
[2] = Plasma concentration in mouse xenografted with human SU-DHL10 cells at 3 mg/kg, po administered twice daily via gavage for 21 days measured at 2 hrs post last dose
[3] = Plasma concentration in mouse xenografted with human SU-DHL10 cells at 10 mg/kg, po administered twice daily via gavage for 21 days measured at 2 hrs post last dose
[4] = Plasma concentration in mouse xenografted with human SU-DHL10 cells at 20 mg/kg, po administered twice daily via gavage for 21 days measured at 2 hrs post last dose
[5] = Plasma concentration in mouse xenografted with human SU-DHL10 cells at 10 mg/kg, po administered once daily via gavage for 21 days measured at 2 hrs post last dose
[6] = Plasma concentration in mouse xenografted with human SU-DHL10 cells at 1 mg/kg, po administered twice daily via gavage for 21 days measured at 12 hrs post last dose
[7] = Plasma concentration in mouse xenografted with human SU-DHL10 cells at 3 mg/kg, po administered twice daily via gavage for 21 days measured at 12 hrs post last dose
[8] = Plasma concentration in mouse xenografted with human SU-DHL10 cells at 10 mg/kg, po administered twice daily via gavage for 21 days measured at 12 hrs post last dose
[9] = Plasma concentration in mouse xenografted with human SU-DHL10 cells at 20 mg/kg, po administered twice daily via gavage for 21 days measured at 12 hrs post last dose
[10] = Plasma concentration in mouse xenografted with human SU-DHL10 cells at 10 mg/kg, po administered once daily via gavage for 21 days measured at 12 hrs post last dose

Cc1ccc2ncccc2c1-c1cc(-c2c(C)noc2C)cc2nc(C3CC3)[nH]c12
concentration at 2 h [1]: 556 nM
concentration at 2 h [2]: 2620 nM
concentration at 2 h [3]: 4320 nM
concentration at 2 h [4]: 4780 nM
concentration at 2 h [5]: 5830 nM
concentration at 12 h [6]: 13 nM
concentration at 12 h [7]: 18 nM
concentration at 12 h [8]: 32 nM
concentration at 12 h [9]: 32 nM
concentration at 12 h [10]: 207 nM
